The values below come from patent US8476035B2, “Agent that modulates physiological condition of pests, involved in insect choline acetyltransferase activity” (Sumitomo Chemical Company, Limited, priority 2007, dated 2013).

Read-outs that look alike come from different tables or passages of the source. Where only a bound is given, the exact number is not on record here.

Experiment [1] addresses cotton aphid choline acetyltransferase (Aphis gossypii, UniProt A0A9P0JF82). Nature of the experiment: Inhibition of cotton aphid choline acetyltransferase activity (DTNB colorimetric in vitro assay). It is filed as biochemical. The conditions noted are these: for inhibition at 10 µM: test compound in DMSO at final concentration 10 μM, relative to DMSO control, read-out: Activity of inhibiting choline acetyltransferase activity (inhibition degree (%) at 10 μM addition). As to the method:
Selection of a compound which modulates a choline acetyltransferase activity was performed in a system for measuring and evaluating the choline acetyltransferase activity, the activity being modulated by adding a test compound to an in vitro reaction system using the cotton aphid choline acetyltransferase prepared in Example 7.
As for a measurement of the cotton aphid choline acetyltransferase activity, after the enzymatic reaction of choline acetyltransferase using acetyl-CoA and choline as substrates, free CoA formed by choline acetyltransferase reaction was measured using 5,5′-dithio-bis(2-nitrobenzoic acid) (DTNB) reagent. DTNB reacts with free thiol groups in solution to produce 5-thio-2-nitrobenzoic acid (TNB). TNB is yellow and has absorption maximum at 412 nm. The produced TNB was measured […] to calculate choline acetyltransferase activity.
For measuring the activity, the activity of the aphid choline acetyltransferase was measured when a test compound dissolved in DMSO was contained to a final concentration of 10 μM. In addition, the activity of the aphid choline acetyltransferase was measured when DMSO was contained in place of a test compound. Then, a ratio (%) of a measured value of the activity of the aphid choline acetyltransferase when a test compound dissolved in DMSO was contained, relative to a measured value of the activity of aphid choline acetyltransferase when DMSO was contained in place of the test compound was calculated, and a value obtained by subtracting the calculated value from 100% was adopted as an inhibition degree (%). The results in each test compound are shown in Table 4 in Example 9 together with results of Example 9.
The activity of aphid choline acetyltransferase was measured when a test compound dissolved in DMSO was contained to a final concentration of each concentration of 100 μM, 30 μM, 10 μM, 3 μM, 1 μM, 0.3 μM, 0.1 μM or 0.03 μM. IC50 (μM) was calculated from the result of each concentration at each test compound using a concentration-dependent test analyzing software XL fit (manufactured by idbs). The results are shown in Table 5 in Example 10 together with results of Example 9.

The test system of the next experiment is Aphis gossypii. Nature of the experiment: Pesticidal activity test (artificial feed rearing of Aphis gossypii). It is filed as in vivo. Particulars: 50 ppm test compound in artificial feed; surviving Aphis gossypii counted after six days; significant controlling value (e.g. 30% or more) = pesticidal activity.
Where [2] appears, read: concentrations 0.03-100 μM, XLfit, recombinant cotton aphid enzyme, read-out: Activity of inhibiting choline acetyltransferase activity (IC50).
Where [3] appears, read: recombinant cotton aphid enzyme.

Chain of cotton aphid choline acetyltransferase (A0A9P0JF82 entry or part of it): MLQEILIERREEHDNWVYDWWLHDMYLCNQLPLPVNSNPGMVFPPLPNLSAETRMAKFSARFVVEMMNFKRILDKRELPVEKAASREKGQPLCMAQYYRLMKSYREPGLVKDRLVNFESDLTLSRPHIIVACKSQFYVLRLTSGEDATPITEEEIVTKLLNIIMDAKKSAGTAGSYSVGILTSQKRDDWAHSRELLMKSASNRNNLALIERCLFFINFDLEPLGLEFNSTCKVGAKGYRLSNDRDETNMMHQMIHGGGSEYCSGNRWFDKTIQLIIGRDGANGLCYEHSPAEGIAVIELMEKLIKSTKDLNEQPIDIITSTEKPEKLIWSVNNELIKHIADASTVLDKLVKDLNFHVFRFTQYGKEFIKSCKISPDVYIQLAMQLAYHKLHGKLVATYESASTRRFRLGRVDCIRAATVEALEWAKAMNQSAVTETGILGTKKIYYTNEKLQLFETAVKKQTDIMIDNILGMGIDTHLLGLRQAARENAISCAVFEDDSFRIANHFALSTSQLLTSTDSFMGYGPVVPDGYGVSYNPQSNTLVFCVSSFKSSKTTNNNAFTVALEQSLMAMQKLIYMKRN

On to `CN(C)CCC(=O)c1cccc2ccccc12.Cl` [α-NEDA, 2-(α-naphthoyl)ethyl-dimethylammonium chloride], for which the midpoint of inhibition in experiment [1], the IC50, lay at 33.5 µM.
Take `COc1cc(N)c(Cl)cc1C(=O)NC1CCN(CCCOc2ccc(F)cc2)CC1OC` (stereo not drawn) [Cisapride]: the IC50 (in general, the concentration at which inhibition is half-maximal) in experiment [1] (setting [2]) is more than 100 µM.
Take `C[N+](C)(C)CCC(=O)c1cccc2ccccc12.[I-]` [α-NETA, 2-(α-naphthoyl)ethyl-trimethylammonium iodide]: the IC50 in experiment [1] came to 1.5 µM.
As for `O/N=C(\CBr)c1ccccc1` [DD05314], in experiment [1] (setting [3]), the inhibition (in general, how much of the control response was suppressed) at 10 µM is 50%. In addition, the “Result of Example 9: Determination result of pesticidal activity” value in the experiment on Aphis gossypii is recorded as “Presence of pesticidal”.
Regarding `CN(C)CCC(c1ccc(Cl)cc1)c1ccccn1.O=C(O)/C=C\C(=O)O` (racemic) [DL-Chlorpheniramine Maleate], in experiment [1] (setting [2]), the IC50 was more than 100 µM.
With `ICC1CSc2nncn21` (stereo not drawn) [DD03493], the IC50 in experiment [1] (setting [2]) worked out at 23.8 µM. The inhibition at 10 µM in experiment [1] (setting [3]) was found to be 49%. Further, in the experiment with Aphis gossypii, the “Result of Example 9: Determination result of pesticidal activity” value is “Presence of pesticidal”.
